Source: PubChem BioAssay AID504657 (Sanford-Burnham Center for Chemical Genomics, 2011)
Calls of active or inactive are those of the source. How the calls were made is not given here.

tested on: S. cerevisiae tim10-1 mutant, luminescence counterscreen; assay: inhibitors in tim10-1 mutant yeast luminescence, dose response, counter-screen for tim23-1 inhibitor project, S. cerevisiae, uHTS hits (AID 504657)

For `C(=C\c1ccccc1)/C=N/Nc1nc2ccccc2[nH]1`, which IC50 is on record?
Its IC50 is > 100 µM (inactive).

How did the IC50 turn out when `CC(C)Cn1cnc2c(c(-c3ccccc3)c(-c3ccccc3)n2Cc2ccco2)c1=N` was run?
The IC50 was > 100 µM (inactive).

`Cc1cc(C)nc(SCC(=O)c2cc3ccccc3oc2=O)n1` was tested. Which IC50 did it give?
Its IC50 is > 100 µM (inactive).

Which IC50 does the source give for `CC(C)OC(=O)c1cccnc1SCc1cc(=O)n2ccccc2n1` here?
The IC50 was > 100 µM (inactive).

Which IC50 does the source give for `C=C1CCc2c([nH]c3ccc(OCC(C)C)cc23)C1=O` here?
Its IC50 is > 100 µM (inactive).

`O=C1OC(c2ccccc2)=N/C1=C\C=C\c1ccco1` was tested. Which IC50 did it give?
The IC50 was > 100 µM (inactive).

Which IC50 does the source give for `O=C(Nc1cc(-c2ccccc2)[nH]n1)c1ccccc1` here?
Its IC50 is > 100 µM (inactive).

`Cc1cc2cc(CNC(=O)c3ccc(C)c([N+](=O)[O-])c3)ccc2[nH]1` was tested. Which IC50 did it give?
The IC50 was > 100 µM (inactive).

`O=c1oc(Cl)c(Cl)c2ccccc12` was tested. Which IC50 did it give?
The IC50 was > 100 µM (inactive).

Which IC50 does the source give for `CSc1nnc(C(C)(C)C)c(=O)n1/N=C/c1ccccc1` here?
Its IC50 is > 100 µM (inactive).

`Cc1ccc(CS(=O)(=O)c2ncc(Cl)c(C(=O)Nc3ccc(OC(F)F)cc3)n2)cc1` was tested. Which IC50 did it give?
The IC50 was > 100 µM (inactive).

With `CCCCn1c(N)c(N(CCC(C)C)C(=O)c2ccc3c(c2)OCO3)c(=O)[nH]c1=O` as the compound, how does the IC50 read?
Its IC50 is > 100 µM (inactive).

Which IC50 does the source give for `CCN(CC)S(=O)(=O)c1ccc(C(=O)OCn2nnc3ccccc3c2=O)cc1` here?
Its IC50 is > 100 µM (inactive).

Which IC50 does the source give for `O=C(N/N=C/c1coc2ccc(Cl)cc2c1=O)c1cc(O)cc(O)c1` here?
The IC50 was > 100 µM (inactive).

Which IC50 does the source give for `O=C(N/N=C/C(Cl)=C\c1ccccc1)c1cccs1` here?
The IC50 was > 100 µM (inactive).

Which IC50 does the source give for `O=C(Nc1ccc(-c2cn3c(n2)SCC3)cc1)c1ccco1` here?
The IC50 was > 100 µM (inactive).

With `CC(C)(C)c1csc(NC(=O)c2ccc(Cl)s2)n1` as the compound, how does the IC50 read?
Its IC50 is > 100 µM (inactive).

For `Cc1ccc(Nc2nc(-c3cccnc3)nc3ccccc23)cc1`, which IC50 is on record?
The IC50 was > 100 µM (inactive).

How did the IC50 turn out when `COc1cc2c(cc1OC)/C(=C/c1ccc(Cl)cc1)C(=O)OC2` was run?
The IC50 was > 100 µM (inactive).

Which IC50 does the source give for `CO/C(N)=C(\C#N)N=Cc1ccccc1Cl` here?
Its IC50 is > 100 µM (inactive).

`CCOC(=O)c1ccc(NC(=O)CSc2nc(=O)n3cccc(C)c3n2)cc1` was tested. Which IC50 did it give?
The IC50 was > 100 µM (inactive).

With `Cc1ccc2nc(N3C(=O)CNC3=S)sc2c1` as the compound, how does the IC50 read?
Its IC50 is > 100 µM (inactive).

How did the IC50 turn out when `CCn1c(N2CCN(S(=O)(=O)c3ccc(OC)cc3)CC2)nc2ccccc21` was run?
The IC50 was > 100 µM (inactive).

`O=C(Nc1ccc(-c2cn3ccccc3n2)cc1)c1cccs1` was tested. Which IC50 did it give?
The IC50 was > 100 µM (inactive).

`Cc1nc2scc(C)n2c(=O)c1S(=O)(=O)Nc1ccc(OC(F)(F)F)cc1` was tested. Which IC50 did it give?
Its IC50 is > 100 µM (inactive).

For `CCCN(C(=O)c1ccc([N+](=O)[O-])c(C)c1)c1c(N)n(Cc2ccccc2)c(=O)[nH]c1=O`, which IC50 is on record?
Its IC50 is > 100 µM (inactive).

For `Cc1nc2scc(C)n2c(=O)c1S(=O)(=O)Nc1ccc(N2CCOCC2)cc1`, which IC50 is on record?
The IC50 was > 100 µM (inactive).

Which IC50 does the source give for `Oc1ccccc1C1NN=C(c2ccccc2)S1` (stereo not given) here?
Its IC50 is > 100 µM (inactive).

How did the IC50 turn out when `COc1ccc(/C=C/C(=O)Nc2ccc3c(c2)CCC3)cc1OC` was run?
The IC50 was > 100 µM (inactive).

Which IC50 does the source give for `COc1ccc(C(=O)N/N=C\c2coc3ccc(Cl)cc3c2=O)cc1` here?
The IC50 was > 100 µM (inactive).

How did the IC50 turn out when `CN1CCc2nc3sc(C(=O)C45CC6CC(CC(C6)C4)C5)c(N)c3cc2C1` was run?
The IC50 was > 100 µM (inactive).

How did the IC50 turn out when `O=c1c(O)c(-c2ccccc2)oc2cc(O)cc(O)c12` was run?
The IC50 was > 100 µM (inactive).

`O=C(Nc1ccc2nc(-c3ccc(Br)o3)[nH]c2c1)c1cccs1` was tested. Which IC50 did it give?
The IC50 was > 100 µM (inactive).

Which IC50 does the source give for `Cc1nc2ccc(C(C(F)(F)F)(C(F)(F)F)C(F)(F)F)cc2[nH]1` here?
The IC50 was > 100 µM (inactive).

For `O=C(N/N=C/C=C\c1ccco1)c1cccs1`, which IC50 is on record?
Its IC50 is > 100 µM (inactive).

For `N#C/C(=C\c1ccc(Cl)cc1)C(=O)Nc1cccnc1`, which IC50 is on record?
Its IC50 is > 100 µM (inactive).

How did the IC50 turn out when `O=c1cc(C(Cl)(Cl)Cl)oc2c1ccc1ccccc12` was run?
Its IC50 is > 100 µM (inactive).

How did the IC50 turn out when `O=C(/C=C/c1ccccc1Cl)Nc1ccccc1` was run?
Its IC50 is > 100 µM (inactive).

Which IC50 does the source give for `COc1ccc2c(c1)sc1nc(-c3ccccc3)cn12` here?
Its IC50 is > 100 µM (inactive).

For `O=C(Nc1nc2ccccc2s1)C1CCCN1S(=O)(=O)c1ccc(Cl)cc1` (stereo not given), which IC50 is on record?
Its IC50 is > 100 µM (inactive).

For `N#C/C(=C/c1ccc(N2CCOCC2)o1)c1nc2ccccc2[nH]1`, which IC50 is on record?
Its IC50 is > 100 µM (inactive).

Which IC50 does the source give for `CCOC(=O)c1sc(=NC(=O)c2ccco2)n(C)c1C` here?
Its IC50 is > 100 µM (inactive).

How did the IC50 turn out when `CCOC(=O)c1cccnc1SCc1cc(=O)n2ccccc2n1` was run?
Its IC50 is > 100 µM (inactive).

With `Cc1ccc(-c2nn(-c3ccccc3)cc2NC(=O)CCl)cc1` as the compound, how does the IC50 read?
The IC50 was > 100 µM (inactive).

For `O=C(N/N=C/c1coc2ccc(Cl)cc2c1=O)c1ccncc1`, which IC50 is on record?
The IC50 was > 100 µM (inactive).

With `O=C(CSc1cccc[n+]1[O-])Nc1ccccc1Oc1ccccc1` as the compound, how does the IC50 read?
Its IC50 is > 100 µM (inactive).

Which IC50 does the source give for `N#Cc1c(-c2ccccc2)cc(-c2ccc(O)cc2)nc1N` here?
Its IC50 is > 100 µM (inactive).

How did the IC50 turn out when `Cc1ccc2[nH]cc(C(=O)CCl)c2c1` was run?
The IC50 was > 100 µM (inactive).

With `CN(C)/C=C1/C=C(c2ccccc2)OC1=O` as the compound, how does the IC50 read?
Its IC50 is 94.1 µM.

With `Oc1ccc(Oc2ccc(Oc3ccc(O)cc3)cc2)cc1` as the compound, how does the IC50 read?
Its IC50 is > 100 µM (inactive).
